The results in this text go back to US6511978B1, “Pyrrole derivatives useful for farnesyl transferase inhibitors and their preparations” (LG Life Sciences, Ltd., priority 1999, dated 2003).

Experiment [1] addresses T1, Ras farnesyl transferase (Homo sapiens, UniProt P49354+P49356).
T1 construct: made in house
The experiment can be described thus: Ras farnesyl transferase enzyme inhibition, H-Ras substrate. Conditions: H-Ras substrate protein; recombinant farnesyl transferase; 30 minutes at 37° C. Type of experiment: biochemical. The text has this:
(§1) In the present experiment, the improved Pompliano's method (see: Pompliano et al., Biochemistry, 31, 3800, 1992) was applied. Specifically, Ras farnesyl transferase produced by genetic recombination techniques was used, and fused protein of H-Ras(H-Ras-CVLS) substituted with polybasic lysine domain at C-terminus of K-Ras (see: Korean Patent Appln. No. 97-14409) was used as a substrate after it had been purified according to the known method(see, Chung et al., Biochimica et Biophysica Acta, 1129, 278, 1992).
(§2) The enzyme reaction was performed in 50 μl of 50 mM Sodium HEPES buffer solution containing 25 mM of potassium chloride, 25 mM of magnesium chloride, 10 mM of DTT and 50 μM of zinc chloride. 1.5 μM of Ras substrate protein, 0.15 μM of tritium-farnesylpyrophosphate and 4.5 nM of farnesyl transferase were used. More specifically, in the initial step, farnesyl transferase was added to the above buffer solution, reaction was maintained for 30 minutes at 37° C. and then the reaction was stopped by adding 1 ml of ethanol solution containing 1M HCl. The formed precipitates were adsorbed to GF/B filter using Hopper harvestor(Hopper #FH 225V) for filter-binding, washed with ethanol, and then radioactivity of the dried filter was measured using LKB β counter. Enzyme titer was measured in the unsaturated state of substrate where the concentration of Ras substrate protein and farnesyl transferase have quantitative relationship. The compound according to the present invention dissolved in dimethyl sulfoxide(DMSO) was added to the reaction solution in an amount of less than 5% of the total reaction solution, and then the enzyme inhibitory activity thereof was measured. The enzyme inhibitory activity was represented by percentage of the amount of farnesyl incorporated into the Ras substrate protein in the presence of the test compound to that in the absence of the test compound. IC50 of the test compound was defined as the concentration at which 50% of the enzyme activity was inhibited. To evaluate the selective enzyme inhibitory activity of the compound according to the present invention, inhibitory activity on geranylgeranyl transferase was measured. Geranylgeranyl transferase was purified from bovine brain according to the modified Schaber's method(Schaber et al., J. Biol. Chem. 265, 14701, 1990), and substantially the same experimental procedure as that for farnesyl transferase was performed on geranylgeranyl pyrophosphate and Ras-CVIL substrate protein.

The target of experiment [2] is T1, Ras farnesyl transferase. The experiment can be described thus: Ras farnesyl transferase enzyme inhibition, K-Ras substrate (H-Ras fused with polybasic lysine domain of K-Ras). It is filed as biochemical. Conditions: K-Ras substrate (fused protein of H-Ras with polybasic lysine domain of K-Ras); recombinant farnesyl transferase.
From the text: as §1, §2

For experiment [3], the target named is T2, Ras farnesyl transferase (Rattus norvegicus, UniProt Q02293+Q04631).
T2 construct: endogenous in cells; host or cells: Rat2 fibroblasts transformed with C-Harvey-Ras or with the H-Ras/K-Ras polybasic-domain fusion
The experiment can be described thus: In vivo (intracellular) Ras farnesylation inhibition in Rat2 cell line expressing C-Harvey-Ras. It is filed as cell-based. The note with it: Rat2 cells expressing C-Harvey-Ras; concentration inhibiting 50% of farnesyl binding; read-out: H-Ras CIC50. As to the method: (§3) In the present experiment, Rat2 cell line which expresses C-Harvey-Ras protein having transforming activity and Rat2 cell line(Korean patent application No. 97-14409) which is transformed with fused protein of H-Ras substituted with polybasic lysine domain at C-terminus of K-Ras were used. The experiment was performed by the modified Declue's method(Declue. J. E. et al., Cancer Research, 51, 712, 1991) as follows.
(§4) 3×10^5 cells of transformed Rat2 fibroblast cell line were sprayed on 60 mm cell cultivation dish and cultivated for 48 hours in a cell incubator at 37° C. and after 50% or more of density was reached, it was treated with the test compounds. The compound according to the present invention dissolved in dimethylsulfoxide(DMSO) was used. 1% concentration of dimethylsulfoxide was used in both control and test groups. After 4 hours from the treatment with the compound, methionine labeled with 150 μCi of radioactive isotope [^35S] per 1 ml of medium was added and after cultivating for 20 hours, the cells were washed with physiological saline water. The cells were lysed using 1 ml of cold cell lysis buffer solution(50 mM of Sodium HEPES buffer solution containing 5 mM of magnesium chloride, 1 mM of DTT, 1% NP 40, 1 mM of EDTA, 1 mM of PMSF, 2 μM of leupeptin, 2 μM of pepstatin A and 2 μM of antipain) and the supernatant wherein the cells were lysed was obtained by high-velocity centrifugation of 12,000 g×5 minutes. The amount of radioisotope in the supernatant was measured and standardized to obtain a quantitative result in immunoprecipitation reaction and then, Y13-259, a monoclonal antiboby specifically binding to Ras protein(see: Furth, M. E. et al., J. Virol, 43, 294, 1982) was added and reacted for 15 hours at 4° C. Protein A(combined with goat anti-murine immunoglobulin antibody)-agarose suspension was added to the solution and reacted for 1 hour at 4° C. and then, to remove the unspecific binding product, immunoprecipitates were washed with a buffer solution (50 mM Tris chloride buffer solution containing 50 mM of sodium chloride, 0.5% of sodium dioxycholate, 0.5% of NP 40 and 0.1% of SDS). The precipitates were added to a buffer solution for electrophoresis and boiled and then, electrophoresis was performed using 13.5% of SDS polyacrylamide gel. After electrophoresis, the gel was fixed and dried. Then, the gel was exposed to X-ray film, developed and printed. From the result of the experiment, intensities of band of protein combined with or without farnesyl of Ras protein was measured, and the concentration of the test compound inhibiting 50% of farnesyl binding was defined as CIC50, an in vivo Ras farnesyl transferase inhibitory activity. IC50 means the data from Experimental 1 and CIC50 means the data from Experimental 2.

Experiment [4] deals with T2, Ras farnesyl transferase. Description: In vivo (intracellular) Ras farnesylation inhibition in Rat2 cell line transformed with H-Ras fused with polybasic lysine domain of K-Ras. Type of experiment: cell-based. The note with it: Rat2 cells transformed with H-Ras/K-Ras polybasic domain fused protein; concentration inhibiting 50% of farnesyl binding; read-out: K-Ras CIC50. The method, then:
as §3, §4

Structures are written as SMILES. A value given as a limit tells only on which side of the number the result lay.

Consider `O=C(c1cn(Cc2cncn2C2CCN(Cc3ccccc3)CC2)cc1-c1cccc2ccccc12)N1CCOCC1` [Example 14, 1-[1-(1-benzylpiperidin-4-yl)-1H-imidazol-5-yl]methyl-3-(morpholin-4-yl)carbonyl-4-(naphthalen-1-yl)-1H-pyrrole], for which the IC50 on Ras farnesyl transferase [1] is less than 0.01 µM; on Ras farnesyl transferase [2], less than 0.01 µM; on Ras farnesyl transferase [3], less than 0.025 µM; on Ras farnesyl transferase [4], 10 to 50 µM.

Regarding `Cc1ncc(Cn2cc(C(=O)N3CCN(C)CC3)c(-c3cccc4ccccc34)c2)n1Cc1ccc2c(c1)OCO2` [Example 15, 1-[2-methyl-1-(3,4-methylenedioxybenzyl)-1H-imidazol-5-ylmethyl]-3-(4-methylpiperazin-1-yl)carbonyl-4-(naphthalen-1-yl)-1H-pyrrole], the IC50 is less than 0.006 µM at Ras farnesyl transferase [1], less than 0.013 µM at Ras farnesyl transferase [2], greater than 0.025 µM on Ras farnesyl transferase [3] and greater than 10 µM on Ras farnesyl transferase [4].

Regarding `Cc1ncn(Cc2ccc3c(c2)OCO3)c1Cn1cc(C(=O)N2CCN(C)CC2)c(-c2cccc3ccccc23)c1` [Example 16, 1-[4-methyl-1-(3,4-methylenedioxybenzyl)-1H-imidazol-5-ylmethyl]-3-(4-methylpiperazin-1-yl)carbonyl-4-(naphthalen-1-yl)-1H-pyrrole], the IC50 is less than 0.0015 µM at Ras farnesyl transferase [1], less than 0.0023 µM on Ras farnesyl transferase [2], greater than 0.025 µM on Ras farnesyl transferase [3] and greater than 10 µM at Ras farnesyl transferase [4].

Take `CN1CCN(C(=O)c2cn(Cc3cnc(N)n3Cc3ccc4c(c3)OCO4)cc2-c2cccc3ccccc23)CC1` [Example 17, 1-[2-amino-1-(3,4-methylenedioxybenzyl)-1H-imidazol-5-ylmethyl]-3-(4-methylpiperazin-1-yl)carbonyl-4-(naphthalen-1-yl)-1H-pyrrole]: the IC50 at Ras farnesyl transferase [1] is less than 0.0018 µM; at Ras farnesyl transferase [2], less than 0.0064 µM; on Ras farnesyl transferase [3] it was greater than 0.025 µM; on Ras farnesyl transferase [4], greater than 10 µM.

For `CSc1ncc(Cn2cc(C(=O)N3CCN(C)CC3)c(-c3cccc4ccccc34)c2)n1Cc1ccc2c(c1)OCO2` [Example 18, 1-[1-(3,4-methylenedioxybenzyl)-2-methylthio-1H-imidazol-5-ylmethyl]-3-(4-methylpiperazin-1-yl)carbonyl-4-(naphthalen-1-yl)-1H-pyrrole], the IC50 is less than 0.0035 µM at Ras farnesyl transferase [1], less than 0.012 µM at Ras farnesyl transferase [2], greater than 0.025 µM at Ras farnesyl transferase [3] and greater than 10 µM at Ras farnesyl transferase [4].

Turning to `CSc1c(C(=O)N2CCN(C)CC2)c(-c2cccc3ccccc23)cn1Cc1cncn1Cc1ccc2c(c1)OCO2` [Example 19, 1-[1-(3,4-methylenedioxybenzyl)-1H-imidazol-5-ylmethyl]-3-(4-methylpiperazin-1-yl)carbonyl-2-methylthio-4-(naphthalen-1-yl)-1H-pyrrole], the IC50 at Ras farnesyl transferase [1] was less than 0.00095 µM; at Ras farnesyl transferase [2], less than 0.002 µM; at Ras farnesyl transferase [3], less than 0.0125 µM; on Ras farnesyl transferase [4], greater than 10 µM.

With `CN1CCN(C(=O)c2cn(Cc3c(I)ncn3Cc3ccc4c(c3)OCO4)cc2-c2cccc3ccccc23)CC1` [Example 20, 1-[4-iodo-1-(3,4-methylenedioxybenzyl)-1H-imidazol-5-ylmethyl]-3-(4-methylpiperazin-1-yl)carbonyl-4-(naphthalen-1-yl)-1H-pyrrole], the IC50 at Ras farnesyl transferase [1] was less than 0.0035 µM; at Ras farnesyl transferase [2], less than 0.018 µM; at Ras farnesyl transferase [3], greater than 0.025 µM; at Ras farnesyl transferase [4], greater than 10 µM.

Consider `CN1CCN(C(=O)c2cn(Cc3c([N+](=O)[O-])ncn3Cc3ccc4c(c3)OCO4)cc2-c2cccc3ccccc23)CC1` [Example 21, 1-[1-(3,4-methylenedioxybenzyl)-4-nitro-1H-imidazol-5-ylmethyl]-3-(4-methylpiperazin-1-yl)carbonyl-4-(naphthalen-1-yl)-1H-pyrrole], for which the IC50 is greater than 0.03 µM at Ras farnesyl transferase [1], greater than 0.03 µM on Ras farnesyl transferase [2], greater than 0.03 µM at Ras farnesyl transferase [3] and greater than 10 µM at Ras farnesyl transferase [4].

Turning to `CN1CCN(C(=O)c2cn(Cc3c(N)ncn3Cc3ccc4c(c3)OCO4)cc2-c2cccc3ccccc23)CC1` [Example 22, 1-[4-amino-1-(3,4-methylenedioxybenzyl)-1H-imidazol-5-ylmethyl]-3-(4-methylpiperazin-1-yl)carbonyl-4-(naphthalen-1-yl)-1H-pyrrole], the IC50 at Ras farnesyl transferase [1] is less than 0.0027 µM; at Ras farnesyl transferase [2], less than 0.03 µM; on Ras farnesyl transferase [3], greater than 0.025 µM; on Ras farnesyl transferase [4] it was greater than 10 µM.

Take `CON1CCN(C(=O)c2cn(Cc3c(C)ncn3Cc3ccc4c(c3)OCO4)cc2-c2cccc3ccccc23)CC1` [Example 23, 3-(4-methoxypiperazin-1-yl)carbonyl-1-[4-methyl-1-(3,4-methylenedioxybenzyl)-1H-imidazol-5-ylmethyl]-4-(naphthalen-1-yl)-1H-pyrrole]: the IC50 at Ras farnesyl transferase [1] was less than 0.022 µM; at Ras farnesyl transferase [2] it was greater than 0.03 µM; on Ras farnesyl transferase [3], greater than 0.03 µM; at Ras farnesyl transferase [4], greater than 10 µM.

`Cc1c(C(=O)N2CCN(C)CC2)c(-c2cccc3ccccc23)cn1Cc1cncn1Cc1ccc2c(c1)OCO2` [Example 24, 2-methyl-1-[1-(3,4-methylenedioxybenzyl)-1H-imidazol-5-ylmethyl]-3-(4-methylpiperazin-1-yl)carbonyl-4-(naphthalen-1-yl)-1H-pyrrole]: the IC50 at Ras farnesyl transferase [1] was less than 0.00445 µM; on Ras farnesyl transferase [2] it was less than 0.007 µM; on Ras farnesyl transferase [3] it was greater than 0.025 µM; at Ras farnesyl transferase [4] it was less than 10 µM.

With `CCSc1c(C(=O)N2CCN(C)CC2)c(-c2cccc3ccccc23)cn1Cc1cncn1Cc1ccc2c(c1)OCO2` [Example 25, 2-ethylthio-1-[1-(3,4-methylenedioxybenzyl)-1H-imidazol-5-ylmethyl]-3-(4-methylpiperazin-1-yl)carbonyl-4-(naphthalen-1-yl)-1H-pyrrole], the IC50 was less than 0.002 µM at Ras farnesyl transferase [1], less than 0.006 µM at Ras farnesyl transferase [2], less than 0.01 µM at Ras farnesyl transferase [3] and less than 5 µM at Ras farnesyl transferase [4].

`COc1ccccc1CCn1c(Cn2cc(C(=O)N3CCN(C)CC3)c(-c3cccc4ccccc34)c2)cnc1C` [Example 26, 1-[1-(2-methoxyphenethyl)-2-methyl-1H-imidazol-5-ylmethyl]-3-(4-methylpiperazin-1-yl)carbonyl-4-(naphthalen-1-yl)-1H-pyrrole]: the IC50 is less than 0.002 µM at Ras farnesyl transferase [1], less than 0.0065 µM on Ras farnesyl transferase [2], less than 0.025 µM at Ras farnesyl transferase [3] and greater than 10 µM at Ras farnesyl transferase [4].
